Test results as given in ChEMBL document CHEMBL3217479, “Overcoming retinoic acid receptor- based testicular toxicity in the optimisation of glucokinase activators” (Medchemcomm, 2011).
≈ marks a conversion by molar mass, not a printed value.

Columns and labels:
[1] = Lipophilicity, log D of the compound; format: physicochemical; conditions: octanol/water
[2] = Solubility of the compound; format: physicochemical
[3] = Apparent permeability from apical to basolateral side of human Caco2 cells; format: ADME, cell-based; conditions: Caco-2
[4] = biological target: T1, Retinoic acid receptor alpha (Homo sapiens, UniProt P10276); assay: Inhibition of RAR alpha (unknown origin)
T1 sequence (P10276 whole entry): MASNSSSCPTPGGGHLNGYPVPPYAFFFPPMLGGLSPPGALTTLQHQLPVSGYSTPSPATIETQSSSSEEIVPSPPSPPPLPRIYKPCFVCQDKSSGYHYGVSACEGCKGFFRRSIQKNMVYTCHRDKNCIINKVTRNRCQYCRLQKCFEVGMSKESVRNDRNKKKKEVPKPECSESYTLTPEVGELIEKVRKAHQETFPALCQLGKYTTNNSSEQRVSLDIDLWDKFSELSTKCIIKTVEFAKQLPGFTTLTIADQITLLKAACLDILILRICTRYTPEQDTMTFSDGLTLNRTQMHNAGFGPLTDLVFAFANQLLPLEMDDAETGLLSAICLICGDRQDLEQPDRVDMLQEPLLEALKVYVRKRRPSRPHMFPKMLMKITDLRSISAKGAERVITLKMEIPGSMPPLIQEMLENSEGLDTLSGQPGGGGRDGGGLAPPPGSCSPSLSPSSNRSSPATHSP

[5] = biological target: T2, Retinoic acid receptor beta (Homo sapiens, UniProt P10826); assay: Inhibition of RAR beta (unknown origin)
T2 sequence (P10826 whole entry): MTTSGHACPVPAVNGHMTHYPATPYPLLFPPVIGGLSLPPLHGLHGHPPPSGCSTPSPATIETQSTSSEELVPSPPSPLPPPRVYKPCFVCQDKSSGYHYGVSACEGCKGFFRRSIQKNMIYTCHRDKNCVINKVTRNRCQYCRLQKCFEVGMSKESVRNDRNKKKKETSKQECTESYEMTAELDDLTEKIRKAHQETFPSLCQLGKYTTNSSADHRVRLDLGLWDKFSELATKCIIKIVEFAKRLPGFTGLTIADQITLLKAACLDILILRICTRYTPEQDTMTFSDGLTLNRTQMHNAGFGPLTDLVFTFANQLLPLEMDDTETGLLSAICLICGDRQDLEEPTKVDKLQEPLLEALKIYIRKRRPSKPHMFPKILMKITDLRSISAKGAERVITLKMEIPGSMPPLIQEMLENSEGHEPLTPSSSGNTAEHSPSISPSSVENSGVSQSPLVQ

[6] = biological target: T3, Retinoic acid receptor gamma (Homo sapiens, UniProt P13631); assay: Inhibition of RAR gamma (unknown origin)
T3 sequence (P13631 whole entry): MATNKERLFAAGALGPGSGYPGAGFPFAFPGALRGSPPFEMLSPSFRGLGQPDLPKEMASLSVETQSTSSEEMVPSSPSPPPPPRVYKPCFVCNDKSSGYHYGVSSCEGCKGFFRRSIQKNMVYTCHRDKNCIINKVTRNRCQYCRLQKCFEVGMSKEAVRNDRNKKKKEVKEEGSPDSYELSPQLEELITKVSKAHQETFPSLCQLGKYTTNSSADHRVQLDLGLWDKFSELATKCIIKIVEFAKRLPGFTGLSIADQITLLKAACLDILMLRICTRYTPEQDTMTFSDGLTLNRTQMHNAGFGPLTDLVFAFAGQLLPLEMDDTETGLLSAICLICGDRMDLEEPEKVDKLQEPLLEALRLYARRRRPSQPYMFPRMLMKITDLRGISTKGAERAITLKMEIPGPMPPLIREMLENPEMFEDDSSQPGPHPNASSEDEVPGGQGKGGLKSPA

[7] = Toxicity in testis (unknown origin); format: tissue-based
Hexokinase-4 = biological target: T4, Hexokinase-4 (Homo sapiens, UniProt P35557); assay: Activation of glucokinase (unknown origin)
T4 sequence (P35557 whole entry): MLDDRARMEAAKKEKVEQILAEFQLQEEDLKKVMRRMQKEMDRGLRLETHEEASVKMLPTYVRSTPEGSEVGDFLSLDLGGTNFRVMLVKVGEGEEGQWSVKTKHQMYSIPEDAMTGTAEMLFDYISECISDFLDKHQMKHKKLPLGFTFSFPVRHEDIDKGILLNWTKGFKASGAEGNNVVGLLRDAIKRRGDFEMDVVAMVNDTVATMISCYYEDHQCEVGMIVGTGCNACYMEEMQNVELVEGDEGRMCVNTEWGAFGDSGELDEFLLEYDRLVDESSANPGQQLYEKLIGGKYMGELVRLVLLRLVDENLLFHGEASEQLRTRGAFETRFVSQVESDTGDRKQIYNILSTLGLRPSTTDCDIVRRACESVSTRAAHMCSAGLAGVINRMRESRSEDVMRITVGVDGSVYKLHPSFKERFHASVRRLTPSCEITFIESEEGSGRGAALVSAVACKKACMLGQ

Rattus norvegicus [8] = assay: Antidiabetic activity in rat assessed as reduction of glucose AUC at 10 mg/kg by oral glucose tolerance test; format: functional
Rattus norvegicus [9] = assay: Antidiabetic activity in rat assessed as reduction of glucose AUC at 3 mg/kg by oral glucose tolerance test; format: functional
[10] = biological target: Voltage-gated inwardly rectifying potassium channel KCNH2 (Homo sapiens, UniProt Q12809)
Sequence of Voltage-gated inwardly rectifying potassium channel KCNH2 (Q12809 whole entry): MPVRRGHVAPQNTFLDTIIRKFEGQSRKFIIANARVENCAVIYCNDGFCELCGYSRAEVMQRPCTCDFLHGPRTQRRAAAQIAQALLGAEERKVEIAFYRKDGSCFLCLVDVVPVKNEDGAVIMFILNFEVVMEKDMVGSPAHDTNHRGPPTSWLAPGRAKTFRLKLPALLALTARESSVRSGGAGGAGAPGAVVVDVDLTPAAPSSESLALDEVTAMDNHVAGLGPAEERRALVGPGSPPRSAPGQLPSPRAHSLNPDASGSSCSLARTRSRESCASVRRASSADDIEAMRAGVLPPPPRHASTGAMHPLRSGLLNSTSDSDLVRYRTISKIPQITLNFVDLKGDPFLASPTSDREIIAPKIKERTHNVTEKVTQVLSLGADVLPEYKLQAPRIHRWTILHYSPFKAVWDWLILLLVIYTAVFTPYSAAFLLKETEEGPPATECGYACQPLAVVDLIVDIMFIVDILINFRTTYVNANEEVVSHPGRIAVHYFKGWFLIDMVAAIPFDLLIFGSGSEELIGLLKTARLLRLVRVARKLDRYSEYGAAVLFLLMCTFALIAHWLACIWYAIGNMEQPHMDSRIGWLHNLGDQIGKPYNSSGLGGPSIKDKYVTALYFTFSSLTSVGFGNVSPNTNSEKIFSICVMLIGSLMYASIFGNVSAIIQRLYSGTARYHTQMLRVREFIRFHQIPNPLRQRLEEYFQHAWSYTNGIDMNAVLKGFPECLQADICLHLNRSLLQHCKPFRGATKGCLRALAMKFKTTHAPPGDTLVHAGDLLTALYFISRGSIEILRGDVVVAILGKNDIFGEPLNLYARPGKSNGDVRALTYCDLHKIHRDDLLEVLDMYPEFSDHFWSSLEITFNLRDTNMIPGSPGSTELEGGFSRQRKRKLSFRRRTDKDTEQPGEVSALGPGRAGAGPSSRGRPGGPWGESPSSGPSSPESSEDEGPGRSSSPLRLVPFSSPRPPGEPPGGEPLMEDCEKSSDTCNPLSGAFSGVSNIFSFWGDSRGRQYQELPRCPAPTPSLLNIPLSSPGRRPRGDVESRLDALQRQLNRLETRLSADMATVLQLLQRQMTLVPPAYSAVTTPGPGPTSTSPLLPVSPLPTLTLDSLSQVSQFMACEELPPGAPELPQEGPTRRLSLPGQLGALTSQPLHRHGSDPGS

Row | logD [1] | solubility [2] [µM] | Papp A→B [3] [×10⁻⁶ cm/s] | IC50 [4] [µM] | IC50 [5] [µM] | IC50 [6] [µM] | EC50 (Hexokinase-4) [µM] | SMILES | Activity [7] | inhibition in vivo at 10 mg/kg (Rattus norvegicus [8]) [%] | inhibition in vivo at 3 mg/kg (Rattus norvegicus [9]) [%] | IC50 [10] [µM]
1 | 1.4 | 805 (≈ 369 µg/mL) | 7.4 | < 0.001 | < 0.001 | 19 |  | COC[C@H](C)Oc1cc(Oc2cc(F)cc(F)c2)cc(C(=O)Nc2ccc(C(=O)O)cn2)c1 | Toxic |  |  | 
2 |  |  |  | 0.47 | 32 | > 1000 |  | COC[C@H](C)Oc1cc(O[C@@H](C)Cc2ccccc2)cc(C(=O)Nc2ccc(C(=O)O)cn2)c1 | Toxic |  |  | 
3 |  |  |  | 0.0111 | 0.007 | 1.2 |  | O=C(O)c1ccc(NC(=O)c2cc(OCc3ccccc3F)cc(OCc3ccccc3F)c2)nc1 | Toxic |  |  | 

Further lines, the molecule ahead of its results:

Row | SMILES | logD [1] | solubility [2] [µM] | Papp A→B [3] [×10⁻⁶ cm/s] | IC50 [4] [µM] | IC50 [5] [µM] | IC50 [6] [µM] | EC50 (Hexokinase-4) [µM] | Activity [7] | inhibition in vivo at 10 mg/kg (Rattus norvegicus [8]) [%] | inhibition in vivo at 3 mg/kg (Rattus norvegicus [9]) [%] | IC50 [10] [µM]
4 | COC[C@H](C)Oc1cc(Oc2ccc(S(C)(=O)=O)cc2)cc(C(=O)Nc2ccc(C(=O)O)cn2)c1 | -0.4 | > 3000 | 0.3 |  |  |  |  |  |  |  | 
5 | COC[C@H](C)Oc1cc(Oc2cc(F)cc(F)c2)cc(C(=O)Nc2nccs2)c1 | 4.1 | < 0.7 |  |  |  |  | 0.07 |  |  |  | 
6 | COC[C@H](C)Oc1cc(Oc2ccc(S(C)(=O)=O)cc2)cc(C(=O)Nc2nccs2)c1 | 3.2 | 20 (≈ 9.25 µg/mL) | 54 | > 30 |  |  | 0.06 | Non-toxic | 29 |  | 
7 | COC[C@H](C)Oc1cc(Oc2ccc(S(C)(=O)=O)cc2)cc(C(=O)Nc2nc(C)ns2)c1 | 2.9 | 129 (≈ 61.6 µg/mL) | 29 | > 30 |  |  | 0.11 | Non-toxic |  | 27 | 7.5
8 | CC(C)COc1cc(OC(C)C)cc(C(=O)Nc2ccc(C(=O)O)cn2)c1 |  |  |  | 0.01 | 0.135 | 22 |  | Toxic |  |  | 
